Experimental data: US20090298820A1, “3-SUBSTITUTED-1H-PYRROLO[2,3-B]PYRIDINE AND 3-SUBSTITUTED-1H-PYRROLO[3,2-B]PYRIDINE COMPOUNDS, THEIR USE AS MTOR KINASE AND PI3 KINASE INHIBITORS, AND THEIR SYNTHESES” (Wyeth, priority 2008, published 2009)
pIC50: −log10 of the molar value. Where a name gives a salt, the structure may show the parent alone.

Assays:
mTOR = mTOR (Homo sapiens, UniProt P42345); test: mTOR enzyme assay (DELFIA format, His6-S6K substrate); type: biochemical; details: read-out: mTOR Kinase Median IC50
PI3Kα = PI3Kα (Homo sapiens, UniProt P42336); test: PI3K-alpha fluorescence polarization assay; type: biochemical; details: read-out: PI3Kα Median IC50
PI3Kγ = PI3Kγ (Homo sapiens, UniProt P48736); test: PI3K-gamma fluorescence polarization assay; type: biochemical; details: read-out: PI3Kγ Median IC50
Sequence of PI3Kγ (P48736 whole entry, species assumed): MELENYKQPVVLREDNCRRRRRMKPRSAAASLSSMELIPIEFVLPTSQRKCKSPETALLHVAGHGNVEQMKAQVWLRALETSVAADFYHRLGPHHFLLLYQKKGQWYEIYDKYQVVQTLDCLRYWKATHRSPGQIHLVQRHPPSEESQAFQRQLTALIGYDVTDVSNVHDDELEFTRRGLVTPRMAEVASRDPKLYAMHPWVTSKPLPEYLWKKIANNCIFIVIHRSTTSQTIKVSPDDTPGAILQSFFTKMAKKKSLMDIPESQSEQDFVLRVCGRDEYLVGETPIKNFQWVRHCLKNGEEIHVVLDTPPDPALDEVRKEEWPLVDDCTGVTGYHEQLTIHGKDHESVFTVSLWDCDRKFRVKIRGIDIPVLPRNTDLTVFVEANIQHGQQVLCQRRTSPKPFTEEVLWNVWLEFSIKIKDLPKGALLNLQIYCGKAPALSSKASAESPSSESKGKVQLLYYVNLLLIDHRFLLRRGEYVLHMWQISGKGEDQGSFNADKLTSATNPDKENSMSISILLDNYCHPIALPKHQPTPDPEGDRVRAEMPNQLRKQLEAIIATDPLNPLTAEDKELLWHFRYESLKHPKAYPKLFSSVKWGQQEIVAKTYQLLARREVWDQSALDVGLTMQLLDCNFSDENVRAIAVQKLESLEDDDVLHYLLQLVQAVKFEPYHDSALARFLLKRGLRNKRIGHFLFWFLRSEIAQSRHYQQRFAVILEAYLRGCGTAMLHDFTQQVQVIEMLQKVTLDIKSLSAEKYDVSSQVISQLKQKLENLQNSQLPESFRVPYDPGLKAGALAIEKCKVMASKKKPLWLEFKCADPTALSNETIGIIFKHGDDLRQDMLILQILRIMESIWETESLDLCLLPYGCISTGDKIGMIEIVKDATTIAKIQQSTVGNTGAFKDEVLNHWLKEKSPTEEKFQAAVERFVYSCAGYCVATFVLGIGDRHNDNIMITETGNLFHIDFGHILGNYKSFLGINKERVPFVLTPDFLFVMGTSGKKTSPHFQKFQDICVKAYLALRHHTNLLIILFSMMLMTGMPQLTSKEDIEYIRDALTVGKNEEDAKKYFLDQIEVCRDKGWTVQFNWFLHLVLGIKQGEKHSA

Sequence of PI3Kα (P42336 whole entry, species assumed): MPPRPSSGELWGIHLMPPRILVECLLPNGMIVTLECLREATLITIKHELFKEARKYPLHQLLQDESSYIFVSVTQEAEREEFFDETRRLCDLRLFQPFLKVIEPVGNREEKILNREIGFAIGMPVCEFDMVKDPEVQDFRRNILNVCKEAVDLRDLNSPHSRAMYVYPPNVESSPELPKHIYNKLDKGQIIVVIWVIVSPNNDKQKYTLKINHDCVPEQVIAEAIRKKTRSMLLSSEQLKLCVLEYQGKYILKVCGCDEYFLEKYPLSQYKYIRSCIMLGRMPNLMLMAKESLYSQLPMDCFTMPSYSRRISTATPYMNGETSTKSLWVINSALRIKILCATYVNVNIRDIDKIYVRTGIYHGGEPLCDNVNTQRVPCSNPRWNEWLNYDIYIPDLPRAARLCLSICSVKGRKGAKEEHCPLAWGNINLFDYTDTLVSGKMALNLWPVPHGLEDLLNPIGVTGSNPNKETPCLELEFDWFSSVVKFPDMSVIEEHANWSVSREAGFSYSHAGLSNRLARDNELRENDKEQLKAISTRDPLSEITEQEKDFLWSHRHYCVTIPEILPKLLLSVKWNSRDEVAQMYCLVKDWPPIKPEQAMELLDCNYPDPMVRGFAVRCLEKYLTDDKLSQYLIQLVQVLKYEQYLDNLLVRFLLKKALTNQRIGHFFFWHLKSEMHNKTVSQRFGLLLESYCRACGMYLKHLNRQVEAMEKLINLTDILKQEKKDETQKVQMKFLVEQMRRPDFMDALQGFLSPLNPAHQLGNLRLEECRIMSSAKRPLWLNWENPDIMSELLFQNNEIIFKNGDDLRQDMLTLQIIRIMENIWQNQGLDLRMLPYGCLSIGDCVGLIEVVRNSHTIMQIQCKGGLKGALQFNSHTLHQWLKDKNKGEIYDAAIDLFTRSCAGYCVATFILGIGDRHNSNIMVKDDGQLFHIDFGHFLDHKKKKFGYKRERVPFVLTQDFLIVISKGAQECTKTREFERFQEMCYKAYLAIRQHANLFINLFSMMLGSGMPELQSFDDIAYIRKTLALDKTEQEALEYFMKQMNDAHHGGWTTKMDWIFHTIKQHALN
Sequence of PI3Kα (P27986 whole entry partner, species assumed): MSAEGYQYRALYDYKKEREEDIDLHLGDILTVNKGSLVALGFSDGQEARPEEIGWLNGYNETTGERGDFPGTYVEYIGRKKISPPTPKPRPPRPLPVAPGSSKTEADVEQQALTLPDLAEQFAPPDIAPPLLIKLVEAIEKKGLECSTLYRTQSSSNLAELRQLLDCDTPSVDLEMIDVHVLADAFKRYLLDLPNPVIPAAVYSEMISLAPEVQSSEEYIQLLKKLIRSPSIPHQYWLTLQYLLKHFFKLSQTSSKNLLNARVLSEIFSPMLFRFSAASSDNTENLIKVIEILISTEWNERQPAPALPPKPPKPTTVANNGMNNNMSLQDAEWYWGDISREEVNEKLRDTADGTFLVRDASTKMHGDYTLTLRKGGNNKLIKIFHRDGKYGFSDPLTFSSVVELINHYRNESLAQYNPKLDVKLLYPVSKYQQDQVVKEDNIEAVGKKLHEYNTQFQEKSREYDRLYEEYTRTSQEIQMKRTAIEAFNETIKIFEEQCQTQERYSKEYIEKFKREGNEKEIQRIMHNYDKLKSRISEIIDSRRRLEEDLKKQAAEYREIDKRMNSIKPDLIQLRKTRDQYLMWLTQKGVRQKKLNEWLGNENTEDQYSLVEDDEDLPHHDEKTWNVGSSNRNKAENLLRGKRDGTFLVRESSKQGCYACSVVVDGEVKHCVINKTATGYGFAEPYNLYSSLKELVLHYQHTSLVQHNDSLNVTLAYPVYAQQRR

| Compound | melting point | pIC50 (mTOR) | pIC50 (PI3Kα) | pIC50 (PI3Kγ) |
| --- | --- | --- | --- | --- |
| Cn1cc(/C=C2\Oc3cccc(O)c3C2=O)c2c(-c3cccc(C(=O)N4CCCC4)c3)ccnc21 [Compound 103, (2Z)-4-hydroxy-2-({1-methyl-4-[3-(pyrrolidin-1-ylcarbonyl)phenyl]-1H-pyrrolo[2,3-b]pyridin-3-yl}methylene)-1-benzofuran-3(2H)-one] | 233 to 235 °C | 8.18 | 6.74 | 6.77 |
| CN(C)Cc1cccc(-c2ccnc3c2c(/C=C2\Oc4cccc(O)c4C2=O)cn3C)c1 [Compound 122, (2Z)-2-[(4-{3-[(dimethylamino)methyl]phenyl}-1-methyl-1H-pyrrolo[2,3-b]pyridin-3-yl)methylene]-4-hydroxy-1-benzofuran-3(2H)-one] | 308 to 315 °C | 7.74 | 7.22 | 6.55 |
| CN(C)C(=O)c1ccccc1-c1ccnc2c1c(/C=C1\Oc3cccc(O)c3C1=O)cn2C [Compound 141, 2-{3-[(Z)-(4-hydroxy-3-oxo-1-benzofuran-2(3H)-ylidene)methyl]-1-methyl-1H-pyrrolo[2,3-b]pyridin-4-yl}-N,N-dimethylbenzamide] | 293 to 295 °C | 6.74 | 5.23 | 5.73 |
| CN1CC2CC1CN2c1ccnc2c1c(/C=C1\Oc3cccc(O)c3C1=O)cn2C (stereo not shown) [Compound 153, (2Z)-4-hydroxy-2-{[1-methyl-4-(5-methyl-2,5-diazabicyclo[2.2.1]hept-2-yl)-1H-pyrrolo[2,3-b]pyridin-3-yl]methylidene}-1-benzofuran-3(2H)-one] | 220 °C (dec.) | 7.80 | – | 6.83 |
| Cn1cc(/C=C2\Oc3cc(O)cc(O)c3C2=O)c2c(-c3cncnc3)ccnc21 [Compound 62, (2Z)-4,6-dihydroxy-2-[(1-methyl-4-pyrimidin-5-yl-1H-pyrrolo[2,3-b]pyridin-3-yl)methylene]-1-benzofuran-3(2H)-one] | 340 °C | 8.37 | – | – |
| CN1CCOc2cc(-c3ccnc4c3c(/C=C3\Oc5cccc(O)c5C3=O)cn4C)ccc21 [Compound 126, (2Z)-4-hydroxy-2-{[1-methyl-4-(4-methyl-3,4-dihydro-2H-1,4-benzoxazin-7-yl)-1H-pyrrolo[2,3-b]pyridin-3-yl]methylene}-1-benzofuran-3(2H)-one] | – | 8.21 | 6.10 | 5.06 |
| (2Z)-4-hydroxy-2-{[1-methyl-4-(1H-pyrrol-2-yl)-1H-pyrrolo[2,3-b]pyridin-3-yl]methylidene}-1-benzofuran-3(2H)-one [Compound 23] | – | 7.30 | 6.42 | 5.68 |
| Cn1cc(/C=C2\Oc3cc(O)cc(O)c3C2=O)c2c(-c3ccc(N)cc3)ccnc21 [Compound 41, (2Z)-2-{[4-(4-aminophenyl)-1-methyl-1H-pyrrolo[2,3-b]pyridin-3-yl]methylene}-4,6-dihydroxy-1-benzofuran-3(2H)-one] | – | 9.40 | 7.62 | 6.85 |
| COc1ccc(-c2ccnc3c2c(/C=C2\Oc4cc(O)cc(O)c4C2=O)cn3C)cc1S(=O)(=O)N1CCCC1 [Compound 89, (2Z)-4,6-dihydroxy-2-({4-[4-methoxy-3-(pyrrolidin-1-ylsulfonyl)phenyl]-1-methyl-1H-pyrrolo[2,3-b]pyridin-3-yl}methylene)-1-benzofuran-3(2H)-one] | – | 9.30 | 8.10 | 7.30 |
| CN1CCN(C(=O)c2ccc(-c3ccnc4c3c(/C=C3\Oc5cccc(O)c5C3=O)cn4C)cc2)CC1 [Compound 124, (2Z)-4-hydroxy-2-[(1-methyl-4-{4-[(4-methylpiperazin-1-yl)carbonyl]phenyl}-1H-pyrrolo[2,3-b]pyridin-3-yl)methylene]-1-benzofuran-3(2H)-one] | – | 9.00 | 7.15 | 6.74 |
| Cn1cc(/C=C2\Oc3cc(O)cc(O)c3C2=O)c2c(-c3cccc(C(=O)N4CCCC4)c3)ccnc21 [Compound 79, (2Z)-4,6-dihydroxy-2-({1-methyl-4-[3-(pyrrolidin-1-ylcarbonyl)phenyl]-1H-pyrrolo[2,3-b]pyridin-3-yl}methylene)-1-benzofuran-3(2H)-one] | – | 8.85 | 8.10 | 7.31 |
| Cn1c(-c2ccccc2)c(/C=C2\Oc3cc(O)ccc3C2=O)c2cccnc21 [Compound 28, (2Z)-6-hydroxy-2-[(1-methyl-2-phenyl-1H-pyrrolo[2,3-b]pyridin-3-yl)methylene]-1-benzofuran-3(2H)-one] | – | 5.60 | 5.29 | 5.29 |
| Cn1cc(/C=C2\Oc3cc(O)cc(O)c3C2=O)c2c(-c3ccc(OCCn4ccnc4)cc3)ccnc21 [Compound 16, (2Z)-4,6-dihydroxy-2-[(4-{4-[2-(1H-imidazol-1-yl)ethoxy]phenyl}-1-methyl-1H-pyrrolo[2,3-b]pyridin-3-yl)methylene]-1-benzofuran-3(2H)-one] | – | 8.30 | 7.62 | 6.61 |
| Cn1c(-c2ccccc2)c(/C=C2\Oc3cccc(O)c3C2=O)c2cccnc21 [Compound 29, (2Z)-4-hydroxy-2-[(1-methyl-2-phenyl-1H-pyrrolo[2,3-b]pyridin-3-yl)methylene]-1-benzofuran-3(2H)-one] | – | 5.57 | 5.44 | 5.10 |
| COc1ccc2[nH]cc(/C=C3\Oc4cc(O)cc(O)c4C3=O)c2n1 [Compound 26, (2Z)-4,6-dihydroxy-2-[(5-methoxy-1H-pyrrolo[3,2-b]pyridin-3-yl)methylene]-1-benzofuran-3(2H)-one] | – | < 5.40 | 6.63 | 5.80 |

Other lines, results leading:

| melting point | pIC50 (mTOR) | pIC50 (PI3Kα) | pIC50 (PI3Kγ) | Compound |
| --- | --- | --- | --- | --- |
| 175 to 180 °C | 8.25 | 7.62 | 7.35 | CN(C)CCNC(=O)Nc1ccc2c(c1)C(=O)/C(=C/c1cn(C)c3nccc(N4CC5CCC(C4)O5)c13)O2 [Compound 193, 1-[2-(dimethylamino)ethyl]-3-[(2Z)-2-{[1-methyl-4-(8-oxa-3-azabicyclo[3.2.1]oct-3-yl)-1H-pyrrolo[2,3-b]pyridin-3-yl]methylidene}-3-oxo-2,3-dihydro-1-benzofuran-5-yl]urea] |
| 162 to 167 °C | – | – | – | CCOC(=O)Nc1ccc2c(c1)C(=O)/C(=C/c1cn(C)c3nccc(N4CCC(C(=O)N(C)C)CC4)c13)O2 (as salt: Na) [Compound 171, ethyl[(2Z)-2-({4-[4-(dimethylcarbamoyl)piperidin-1-yl]-1-methyl-1H-pyrrolo[2,3-b]pyridin-3-yl}methylidene)-3-oxo-2,3-dihydro-1-benzofuran-5-yl]carbamate] |
| 236 to 240 °C | – | 5.25 | < 5.00 | CN(C)C(=O)C1CCN(c2ccnc3c2c(/C=C2\Oc4ccc(NC(=O)C(F)(F)F)cc4C2=O)cn3C)CC1 [Compound 163, N,N-dimethyl-1-{1-methyl-3-[(Z)-{3-oxo-5-[(trifluoroacetyl)amino]-1-benzofuran-2(3H)-ylidene}methyl]-1H-pyrrolo[2,3-b]pyridin-4-yl}piperidine-4-carboxamide] |
| – | 7.26 | 5.95 | 6.19 | Cn1cc(/C=C2\Oc3ccc(NC(=O)Nc4cccnc4)cc3C2=O)c2c(-c3ccc(C(=O)N4CCOCC4)cc3)ccnc21 [Compound 178, 1-[(2Z)-2-({1-methyl-4-[4-(morpholin-4-ylcarbonyl)phenyl]-1H-pyrrolo[2,3-b]pyridin-3-yl}methylidene)-3-oxo-2,3-dihydro-1-benzofuran-5-yl]-3-pyridin-3-ylurea] |
| – | 7.90 | 5.65 | 5.52 | COCCCN(C)C(=O)C1CCN(c2ccnc3c2c(C=C2Oc4ccc(NC(=O)Nc5cccnc5)cc4C2=O)cn3C)CC1 [Compound 199, N-(3-methoxypropyl)-N-methyl-1-[1-methyl-3-({3-oxo-5-[(pyridin-3-ylcarbamoyl)amino]-1-benzofuran-2(3H)-ylidene}methyl)-1H-pyrrolo[2,3-b]pyridin-4-yl]piperidine-4-carboxamide] |
| – | 8.08 | 7.17 | 6.50 | CN(C)C(=O)C1CCN(c2ccnc3c2c(/C=C2\Oc4ccc(NC(=O)NC5CNC5)cc4C2=O)cn3C)CC1 [Compound 287, 1-{3-[(Z)-{5-[(azetidin-3-ylcarbamoyl)amino]-3-oxo-1-benzofuran-2(3H)-ylidene}methyl]-1-methyl-1H-pyrrolo[2,3-b]pyridin-4-yl}-N,N-dimethylpiperidine-4-carboxamide] |
| – | 7.37 | < 5.00 | 5.92 | CN(C)CCN(C)C(=O)C1CCN(c2ccnc3c2c(/C=C2\Oc4ccc(NC(=O)Nc5cccnc5)cc4C2=O)cn3C)CC1 [Compound 266, N-[2-(dimethylamino)ethyl]-N-methyl-1-{1-methyl-3-[(Z)-{3-oxo-5-[(pyridin-3-ylcarbamoyl)amino]-1-benzofuran-2(3H)-ylidene}methyl]-1H-pyrrolo[2,3-b]pyridin-4-yl}piperidine-4-carboxamide] |
| – | 7.99 | < 5.00 | < 5.00 | Cn1cc(C=C2Oc3ccc(NC(=O)Nc4cccnc4)cc3C2=O)c2c(N3CCC(C(=O)NC4CCOCC4)CC3)ccnc21 [Compound 214, 1-[1-methyl-3-({3-oxo-5-[(pyridin-3-ylcarbamoyl)amino]-1-benzofuran-2(3H)-ylidene}methyl)-1H-pyrrolo[2,3-b]pyridin-4-yl]-N-(tetrahydro-2H-pyran-4-yl)piperidine-4-carboxamide] |
| – | 7.23 | 5.59 | 5.33 | CN(C)C(=O)C1CCN(c2ccnc3c2c(/C=C2\Oc4ccc(NC(=O)NC5CC5)cc4C2=O)cn3C)CC1 [Compound 291, 1-{3-[(Z)-{5-[(cyclopropylcarbamoyl)amino]-3-oxo-1-benzofuran-2(3H)-ylidene}methyl]-1-methyl-1H-pyrrolo[2,3-b]pyridin-4-yl}-N,N-dimethylpiperidine-4-carboxamide] |
